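Assay format: 96-well plates, 48-hour exposure. GI50 = concentration required for 50% inhibition of growth. Definition used: TGI = concentration required for complete inhibition of growth.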
How the values were obtained:
Assay in all cases: DTP human tumour cell line panel, 48 h
[1] = system: K-562 leukemia
[2] = system: SK-OV-3 ovarian
[3] = system: SN12C renal
[4] = system: U251 CNS
[5] = system: OVCAR-5 ovarian
[6] = system: MALME-3M melanoma
[7] = system: NCI-H226 lung
[8] = system: SW-620 colon
[9] = system: HCT-15 colon
[10] = system: UACC-257 melanoma
[11] = system: T-47D breast
[12] = system: HCT-116 colon
[13] = system: HL-60(TB) leukemia
[14] = system: SNB-19 CNS
[15] = system: NCI-H522 lung
[16] = system: COLO 205 colon
[17] = system: A549 NSCLC
[18] = system: RXF 393 renal
[19] = system: HT29 colon
[20] = system: IGROV1 ovarian
[21] = system: KM12 colon
[22] = system: HOP-92 NSCLC
[23] = system: A498 renal
[24] = system: HOP-62 NSCLC
[25] = system: LOX IMVI melanoma
[26] = system: 786-0 renal
[27] = system: SNB-75 CNS
[28] = system: SF-539 CNS
[29] = system: NCI-H23 lung
[30] = system: HS 578T breast
[31] = system: UACC-62 melanoma
[32] = system: MCF7 breast
[33] = system: SF-295 CNS
[34] = system: MDA-MB-231 breast
[35] = system: UO-31 renal
[36] = system: SK-MEL-28 melanoma
[37] = system: RPMI-8226 leukemia
[38] = system: OVCAR-8 ovarian
[39] = system: MDA-MB-435
[40] = system: M14 melanoma
[41] = system: HCC-2998 colon
[42] = system: EKVX NSCLC
[43] = system: SK-MEL-5 melanoma
[44] = system: CAKI-1 renal
[45] = system: TK-10 renal
[46] = system: DU-145 prostate
[47] = system: NCI/ADR-RES ovarian
[48] = system: SF-268 CNS
[49] = system: PC-3 prostate
[50] = system: SR leukemia
[51] = system: OVCAR-3 ovarian
[52] = system: ACHN renal
[53] = system: SK-MEL-2 melanoma
[54] = system: NCI-H460 lung
[55] = system: CCRF-CEM leukemia
[56] = system: OVCAR-4 ovarian
[57] = system: BT-549 breast

Q: Which GI50 [1] does the source give for `CN1CCN(Cc2ccc(NC(=O)c3cncc(C#Cc4c(N)ncc5cc(F)ccc45)c3)cc2C(F)(F)F)CC1` here?
A: Its GI50 is 5 nM.

Q: And the TGI [1]?
A: Its TGI is 1090 nM.

Q: And the GI50 [2]?
A: The GI50 was 6.3 µM.

Q: And the TGI [2]?
A: The TGI was 13 µM.

Q: And the GI50 [3]?
A: Its GI50 is 1390 nM.

Q: And the TGI [3]?
A: Its TGI is 3.84 µM.

Q: And the GI50 [4]?
A: Its GI50 is 1040 nM.

Q: What about the TGI [4] of the same compound?
A: Its TGI is 2270 nM.

Q: What about the GI50 [5] of the same compound?
A: Its GI50 is 1060 nM.

Q: What about the TGI [5] of the same compound?
A: The TGI was 3.55 µM.

Q: What about the GI50 [6] of the same compound?
A: The GI50 was 360 nM.

Q: What about the TGI [6] of the same compound?
A: The TGI was 1140 nM.

Q: And the GI50 [7]?
A: The GI50 was 442 nM.

Q: And the TGI [7]?
A: Its TGI is 8.56 µM.

Q: And the GI50 [8]?
A: The GI50 was 529 nM.

Q: What about the TGI [8] of the same compound?
A: Its TGI is 1400 nM.

Q: What about the GI50 [9] of the same compound?
A: The GI50 was 631 nM.

Q: What about the TGI [9] of the same compound?
A: Its TGI is 1310 nM.

Q: And the GI50 [10]?
A: The GI50 was 975 nM.

Q: And the TGI [10]?
A: The TGI was 2400 nM.

Q: And the GI50 [11]?
A: Its GI50 is 6.57 µM.

Q: What about the TGI [11] of the same compound?
A: The TGI was 20.2 µM.

Q: What about the GI50 [12] of the same compound?
A: The GI50 was 595 nM.

Q: What about the TGI [12] of the same compound?
A: Its TGI is 1260 nM.

Q: What about the GI50 [13] of the same compound?
A: Its GI50 is 289 nM.

Q: What about the TGI [13] of the same compound?
A: Its TGI is 1490 nM.

Q: And the GI50 [14]?
A: Its GI50 is 870 nM.

Q: And the TGI [14]?
A: The TGI was 1570 nM.

Q: And the GI50 [15]?
A: Its GI50 is 2010 nM.

Q: What about the TGI [15] of the same compound?
A: Its TGI is 5.45 µM.

Q: And the GI50 [16]?
A: The GI50 was 581 nM.

Q: What about the TGI [16] of the same compound?
A: Its TGI is 4.93 µM.

Q: What about the GI50 [17] of the same compound?
A: Its GI50 is 887 nM.

Q: What about the TGI [17] of the same compound?
A: Its TGI is 1730 nM.

Q: And the GI50 [18]?
A: The GI50 was 836 nM.

Q: What about the TGI [18] of the same compound?
A: The TGI was 1570 nM.

Q: And the GI50 [19]?
A: The GI50 was 276 nM.

Q: What about the TGI [19] of the same compound?
A: The TGI was 1150 nM.

Q: What about the GI50 [20] of the same compound?
A: Its GI50 is 813 nM.

Q: And the TGI [20]?
A: Its TGI is 3.02 µM.

Q: What about the GI50 [21] of the same compound?
A: The GI50 was 17.2 nM.

Q: What about the TGI [21] of the same compound?
A: The TGI was 738 nM.

Q: What about the GI50 [22] of the same compound?
A: The GI50 was 200 nM.

Q: And the TGI [22]?
A: Its TGI is 2030 nM.

Q: And the GI50 [23]?
A: The GI50 was 839 nM.

Q: What about the TGI [23] of the same compound?
A: The TGI was 3.99 µM.

Q: And the GI50 [24]?
A: The GI50 was 2400 nM.

Q: And the TGI [24]?
A: Its TGI is 12 µM.

Q: And the GI50 [25]?
A: The GI50 was 587 nM.

Q: What about the TGI [25] of the same compound?
A: The TGI was 1260 nM.

Q: What about the GI50 [26] of the same compound?
A: Its GI50 is 892 nM.

Q: What about the TGI [26] of the same compound?
A: Its TGI is 1630 nM.

Q: What about the GI50 [27] of the same compound?
A: The GI50 was 2020 nM.

Q: And the TGI [27]?
A: Its TGI is 7.84 µM.

Q: What about the GI50 [28] of the same compound?
A: Its GI50 is 860 nM.

Q: And the TGI [28]?
A: Its TGI is 2730 nM.

Q: And the GI50 [29]?
A: The GI50 was 1360 nM.

Q: What about the TGI [29] of the same compound?
A: The TGI was 4.65 µM.

Q: And the GI50 [30]?
A: The GI50 was 1110 nM.

Q: What about the TGI [30] of the same compound?
A: Its TGI is 6.47 µM.

Q: What about the GI50 [31] of the same compound?
A: The GI50 was 1880 nM.

Q: What about the TGI [31] of the same compound?
A: Its TGI is 5.18 µM.

Q: And the GI50 [32]?
A: The GI50 was 591 nM.

Q: And the TGI [32]?
A: Its TGI is 1350 nM.

Q: And the GI50 [33]?
A: The GI50 was 6.47 µM.

Q: What about the TGI [33] of the same compound?
A: Its TGI is 14 µM.

Q: And the GI50 [34]?
A: Its GI50 is 477 nM.

Q: And the TGI [34]?
A: The TGI was 1130 nM.

Q: And the GI50 [35]?
A: Its GI50 is 1440 nM.

Q: And the TGI [35]?
A: Its TGI is 5.06 µM.

Q: And the GI50 [36]?
A: Its GI50 is 729 nM.

Q: What about the TGI [36] of the same compound?
A: The TGI was 1430 nM.

Q: What about the GI50 [37] of the same compound?
A: Its GI50 is 1090 nM.

Q: And the TGI [37]?
A: Its TGI is 2830 nM.

Q: What about the GI50 [38] of the same compound?
A: The GI50 was 1270 nM.

Q: And the TGI [38]?
A: The TGI was 3.57 µM.

Q: What about the GI50 [39] of the same compound?
A: Its GI50 is 532 nM.

Q: And the TGI [39]?
A: The TGI was 1150 nM.

Q: What about the GI50 [40] of the same compound?
A: The GI50 was 378 nM.

Q: And the TGI [40]?
A: Its TGI is 1110 nM.

Q: And the GI50 [41]?
A: Its GI50 is 2040 nM.

Q: And the TGI [41]?
A: The TGI was 11.1 µM.

Q: What about the GI50 [42] of the same compound?
A: The GI50 was 2800 nM.

Q: And the TGI [42]?
A: Its TGI is 10.2 µM.

Q: What about the GI50 [43] of the same compound?
A: Its GI50 is 794 nM.

Q: What about the TGI [43] of the same compound?
A: Its TGI is 1520 nM.

Q: And the GI50 [44]?
A: The GI50 was 3.3 µM.

Q: What about the TGI [44] of the same compound?
A: The TGI was 10.1 µM.

Q: What about the GI50 [45] of the same compound?
A: The GI50 was 2080 nM.

Q: What about the TGI [45] of the same compound?
A: Its TGI is 4.43 µM.

Q: What about the GI50 [46] of the same compound?
A: The GI50 was 874 nM.

Q: What about the TGI [46] of the same compound?
A: The TGI was 1580 nM.

Q: What about the GI50 [47] of the same compound?
A: Its GI50 is 1030 nM.

Q: And the TGI [47]?
A: Its TGI is 2460 nM.

Q: And the GI50 [48]?
A: The GI50 was 884 nM.

Q: What about the TGI [48] of the same compound?
A: The TGI was 1900 nM.

Q: And the GI50 [49]?
A: Its GI50 is 747 nM.

Q: What about the TGI [49] of the same compound?
A: The TGI was 1530 nM.

Q: And the GI50 [50]?
A: Its GI50 is 1470 nM.

Q: What about the TGI [50] of the same compound?
A: Its TGI is 50 µM.

Q: What about the GI50 [51] of the same compound?
A: The GI50 was 2430 nM.

Q: And the TGI [51]?
A: Its TGI is 4.98 µM.

Q: What about the GI50 [52] of the same compound?
A: Its GI50 is 1990 nM.

Q: What about the TGI [52] of the same compound?
A: The TGI was 8.84 µM.

Q: And the GI50 [53]?
A: Its GI50 is 1440 nM.

Q: And the TGI [53]?
A: The TGI was 6.14 µM.

Q: What about the GI50 [54] of the same compound?
A: Its GI50 is 904 nM.

Q: What about the TGI [54] of the same compound?
A: The TGI was 1900 nM.

Q: And the GI50 [55]?
A: The GI50 was 1040 nM.

Q: What about the TGI [55] of the same compound?
A: Its TGI is 2650 nM.

Q: And the GI50 [56]?
A: Its GI50 is 489 nM.

Q: What about the TGI [56] of the same compound?
A: Its TGI is 1380 nM.

Q: And the GI50 [57]?
A: Its GI50 is 4.86 µM.

Q: And the TGI [57]?
A: The TGI was 12.6 µM.

From PubChem BioAssay (NCI)
